The series can be described thus: Single dose intravenous infusion in rats, toxicokinetic parameters in serum. Type of series: in vivo, Sprague-Dawley rats. As for the experimental part: Compound I-hydrate Form 2 was formulated in 23% Solutol HS-15 and 70% PG and diluted with Lactated Ringer Solution to a concentration of 0.061 mg/mL. […] Dose volume was 10 mL/Kg and the infusion rate was 120 mL/kg/hr.
Following dosing, a series of 12 blood samples (approximately 0.2 mL each) were collected from the rats in the first 72 hours. Following collection, blood samples were allowed to stand at room temperature for approximately 30 to 60 minutes to clot and then centrifused (1200×g for 10 minutes at approximately 4° C.) and the resulting serum was recovered and stored frozen until analysis. Mean toxicokinetic parameters were calculated (Table 7).

Each structure is given as a SMILES string.

This note sets out measurements from patent publication US20210380586A1, “2-INDOLYL IMIDAZO[4,5-D]PHENANTHROLINE POLYMORPHS AND COMPOSITIONS REGARDING THE SAME” (Aptose Biosciences Inc., priority 2020, published 2021).

Consider `Cc1[nH]c2ccc(F)cc2c1-c1nc2c3cccnc3c3ncccc3c2[nH]1` [Compound I-hydrate Form 2], for which the area under the curve AUC(0-inf) (usually total exposure, with the tail of the curve extrapolated) (Sprague-Dawley, rat, male rats serum, 0.5 mg/kg, single IV infusion over 5 min, mean) was 130 ng·h/mL. Also, the AUC(0-t) (Sprague-Dawley, rat, male rats serum, 0.5 mg/kg, single IV infusion over 5 min, mean, read-out: AUC0-Tlast) was 100 ng·h/mL. Moreover, the clearance – broadly, the rate of elimination divided by the concentration – (Sprague-Dawley, rat, male rats serum, 0.5 mg/kg, single IV infusion over 5 min, mean, read-out: Cl (total body clearance per kg body weight) (converted)) was 64 mL/min/kg. The Cmax (Sprague-Dawley, rat, male rats serum, 0.5 mg/kg, single IV infusion over 5 min, mean, read-out: Cmax (maximum plasma concentration)) is 1750 ng/mL. Also, the half-life (Sprague-Dawley, rat, male rats serum, 0.5 mg/kg, single IV infusion over 5 min, mean, read-out: T1/2 (Terminal elimination half-life) (converted)) is 1.45 h. In addition, the Tmax (Sprague-Dawley, rat, male rats serum, 0.5 mg/kg, single IV infusion over 5 min, mean, read-out: Tmax (time to maximum plasma concentration)) was found to be 0 h. Moreover, the Vd (Sprague-Dawley, rat, male rats serum, 0.5 mg/kg, single IV infusion over 5 min, mean, read-out: Vz (volume of distribution per kg body weight)) came out at 8.04 L/kg. Further, under “male rats serum, 0.5 mg/kg, single IV infusion over 5 min, mean”, the “AUC % Extrap” value came out at 23.1%. Further, where the note is “rats, 0.5 mg/kg IV”, the “AUCs, fold higher than with Compound I-HCl salt” value is listed as “approximately 3 fold”; the “Cmax, fold higher than with Compound I-HCl salt” value is listed as “approximately 3 fold”; the “volume of distribution, fold higher than Compound I-HCl salt” value was 1.6 fold.
